Reference: ChEMBL document CHEMBL5154826, “Discovery of the Clinical Candidate MAK683: An EED-Directed, Allosteric, and Selective PRC2 Inhibitor for the Treatment of Advanced Malignancies” (J Med Chem, 2022)
Converted amounts (≈) assume the structure as drawn.

How the values were obtained:
[1] = Dissociation constant, pKa of compound; format: physicochemical
[2] = Terminal half life in wild type Beagle dog at 2 mg/kg, po or 1 mg/kg, iv after 1 week by LC-MS/MS analysis; format: ADME, organism-based, Canis lupus familiaris; details: in vivo, time 1 weeks, read-out: beta t1/2 (converted)
[3] = Permeability across basolateral to apical side in human Caco-2 cells incubated for 2 hrs by LC/MS/MS analysis; format: ADME, cell-based; details: read-out: permeability
[4] = Plasma protein binding in human at 1 uM measured after 6 hrs LC-MS/MS analysis; format: ADME, cell-free; details: read-out: PPB (converted)
[5] = High throughput solubility of the compound in FaSSIF after 16 to 24 hrs by MS/MS analysis; format: physicochemical; details: time 16-24 hrs
[6] = Intrinsic clearance in dog hepatocytes measured per 10^6 cells; format: ADME, cell-based, Canis lupus familiaris, Hepatocyte; details: read-out: CLH
[7] = Metabolic stability in rat microsomes assessed as intrinsic clearance; format: ADME, Microsome; details: read-out: CLH
[8] = Dose normalized Cmax in wild type Beagle dog at 2 mg/kg, po or 1 mg/kg, iv after 1 week by LC-MS/MS analysis; format: ADME, organism-based, Canis lupus familiaris; details: in vivo, 168 h, time 1 weeks
[9] = Volume of distribution at steady state ICR (CD-1) mouse at 2 mg/kg, po or 1 mg/kg, iv after 1 week by LC-MS/MS analysis; format: ADME, organism-based; details: in vivo, 168 h, time 1 weeks
[10] = biological target: T1, Alpha-2C adrenergic receptor (Homo sapiens, UniProt P18825); test: Inhibition of alpha2c adrenergic receptor (unknown origin)
T1 sequence (P18825 whole entry): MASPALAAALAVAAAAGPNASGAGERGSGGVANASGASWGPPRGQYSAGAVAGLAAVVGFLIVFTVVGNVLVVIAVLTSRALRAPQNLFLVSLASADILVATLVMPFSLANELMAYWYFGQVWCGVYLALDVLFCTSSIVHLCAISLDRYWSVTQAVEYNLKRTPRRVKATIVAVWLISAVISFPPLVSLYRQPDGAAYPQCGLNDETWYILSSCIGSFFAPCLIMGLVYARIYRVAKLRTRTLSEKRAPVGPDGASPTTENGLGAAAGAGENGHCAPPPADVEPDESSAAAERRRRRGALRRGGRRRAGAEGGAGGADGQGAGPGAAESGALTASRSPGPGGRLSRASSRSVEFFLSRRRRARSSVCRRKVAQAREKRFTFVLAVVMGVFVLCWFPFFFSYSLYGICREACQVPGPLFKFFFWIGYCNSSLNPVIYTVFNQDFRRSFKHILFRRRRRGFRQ

[11] = Intrinsic clearance in mouse hepatocytes measured per 10^6 cells; format: ADME, cell-based, Hepatocyte; details: read-out: CLH
Cytochrome P450 2C9 = Cytochrome P450 2C9 (Homo sapiens, UniProt P11712); test: Inhibition of CYP2C9 in human liver microsomes using diclofenac as substrate incubated for 10 mins in presence of NADPH by LC-MS/MS analysis; format: ADME, Microsome
[12] = Terminal half life in ICR (CD-1) mouse at 2 mg/kg, po or 1 mg/kg, iv after 1 week by LC-MS/MS analysis; format: ADME, organism-based; details: in vivo, time 1 weeks, read-out: beta t1/2 (converted)
[13] = Dose normalized AUC in Sprague-Dawley rat at 2 mg/kg, po or 1 mg/kg, iv after 1 week by LC-MS/MS analysis; format: ADME, organism-based; details: in vivo, 168 h, time 1 weeks
[14] = High throughput solubility of the compound at pH 1 after 16 to 24 hrs by MS/MS analysis; format: physicochemical; details: buffer, time 16-24 hrs
[15] = Oral bioavailability in Sprague-Dawley rat at 2 mg/kg; format: ADME, organism-based; details: in vivo
[16] = Metabolic stability in dog microsomes assessed as intrinsic clearance; format: ADME, Canis lupus familiaris, Microsome; details: read-out: CLH
[17] = Permeability across apical to basolateral side in human Caco-2 cells at 10 uM incubated for 2 hrs by LC/MS/MS analysis; format: ADME, cell-based; details: Caco-2, read-out: permeability
[18] = Oral biovailability in Beagle dog at 2 mg/kg, po; format: ADME, organism-based, Canis lupus familiaris; details: in vivo
[19] = Terminal half life in Sprague-Dawley rat at 2 mg/kg, po or 1 mg/kg, iv after 1 week by LC-MS/MS analysis; format: ADME, organism-based; details: in vivo, time 1 weeks, read-out: beta t1/2 (converted)
[20] = Dose normalized Cmax in ICR (CD-1) mouse at 2 mg/kg, po or 1 mg/kg, iv after 1 week by LC-MS/MS analysis; format: ADME, organism-based; details: in vivo, 168 h, time 1 weeks
[21] = Dose normalized AUC in ICR (CD-1) mouse at 2 mg/kg, po or 1 mg/kg, iv after 1 week by LC-MS/MS analysis; format: ADME, organism-based; details: in vivo, 168 h, time 1 weeks
[22] = Dose normalized Cmax in Sprague-Dawley rat at 2 mg/kg, po or 1 mg/kg, iv after 1 week by LC-MS/MS analysis; format: ADME, organism-based; details: in vivo, 168 h, time 1 weeks
[23] = Volume of distribution at steady state in wild type Beagle dog at 2 mg/kg, po or 1 mg/kg, iv after 1 week by LC-MS/MS analysis; format: ADME, organism-based, Canis lupus familiaris; details: in vivo, 168 h, time 1 weeks
[24] = Lipophilicity, logD of the compound at pH 7.4 by LC with tandem MS analysis; format: physicochemical; details: buffer, read-out: logD
[25] = Plasma protein binding in rat at 1 uM measured after 6 hrs LC-MS/MS analysis; format: ADME, cell-free; details: read-out: PPB (converted)
[26] = Volume of distribution at steady state in Sprague-Dawley rat at 2 mg/kg, po or 1 mg/kg, iv after 1 week by LC-MS/MS analysis; format: ADME, organism-based; details: in vivo, 168 h, time 1 weeks
Cytochrome P450 2D6 = Cytochrome P450 2D6 (Homo sapiens, UniProt P10635); test: Inhibition of CYP2D6 in human liver microsomes using bufuralol as substrate incubated for 10 mins in presence of NADPH by LC-MS/MS analysis; format: ADME, Microsome
[27] = Free plasma concentration in Athymic BALB/c nude mouse xenografted with human Karpas-422 cells at 20 mg/kg, po after 12 hrs by HPLC-MS/MS analysis; format: ADME, organism-based; details: in vivo
[28] = Plasma protein binding in dog at 1 uM measured after 6 hrs LC-MS/MS analysis; format: ADME, cell-free, Canis lupus familiaris; details: read-out: PPB (converted)
[29] = Metabolic stability in mouse microsomes assessed as intrinsic clearance; format: ADME, Microsome; details: read-out: CLH
KARPAS-422 = test: Antiproliferative activity against human KARPAS-422 cells expressing EZH2 mutant assessed as inhibition of cell growth after 14 days by beckman coulter counting method; format: functional; details: time 14 day
[30] = Antitumor activity against human Karpas-422 cells xenografted Athymic BALB/c nude mouse assessed as minimum effective dose administered twice a day for 30 days; format: functional; details: KARPAS-422, 720 h, time 30 day, read-out: MED
[31] = Plasma protein binding in human assessed as unbound fraction at 1 uM measured after 6 hrs LC-MS/MS analysis; format: ADME, cell-free
[32] = High throughput solubility of the compound at pH 7 after 16 to 24 hrs by MS/MS analysis; format: physicochemical; details: buffer, time 16-24 hrs, read-out: solubility
[33] = Intrinsic clearance in rat hepatocytes measured per 10^6 cells; format: ADME, cell-based, Hepatocyte; details: read-out: CLH
[34] = Plasma clearance in rat; format: ADME, cell-free
[35] = High throughput solubility of the compound in SGF after 16 to 24 hrs by MS/MS analysis; format: physicochemical; details: time 16-24 hrs
[36] = Plasma clearance in dog; format: ADME, cell-free, Canis lupus familiaris
[37] = Plasma protein binding in mouse at 1 uM measured after 6 hrs LC-MS/MS analysis; format: ADME, cell-free; details: read-out: PPB (converted)
Cytochrome P450 3A4 = Cytochrome P450 3A4 (Homo sapiens, UniProt P08684); test: Inhibition of CYP3A4 in human liver microsomes using midazolam as substrate incubated for 10 mins in presence of NADPH by LC-MS/MS analysis; format: ADME, Microsome
[38] = Dose normalized AUC in wild type Beagle dog at 2 mg/kg, po or 1 mg/kg, iv after 1 week by LC-MS/MS analysis; format: ADME, organism-based, Canis lupus familiaris; details: in vivo, 168 h, time 1 weeks
[39] = High throughput solubility of the compound in FeSSIF after 16 to 24 hrs by MS/MS analysis; format: physicochemical; details: time 16-24 hrs
[40] = Intrinsic clearance in human hepatocytes measured per 10^6 cells; format: ADME, cell-based, Hepatocyte; details: read-out: CLH
[41] = Metabolic stability in human microsomes assessed as intrinsic clearance; format: ADME, Microsome; details: read-out: CLH
[42] = Oral biovailability in ICR (CD-1) mouse at 2 mg/kg, po; format: ADME, organism-based; details: in vivo

Cytochrome P450 2D6, sequence (P10635 whole entry): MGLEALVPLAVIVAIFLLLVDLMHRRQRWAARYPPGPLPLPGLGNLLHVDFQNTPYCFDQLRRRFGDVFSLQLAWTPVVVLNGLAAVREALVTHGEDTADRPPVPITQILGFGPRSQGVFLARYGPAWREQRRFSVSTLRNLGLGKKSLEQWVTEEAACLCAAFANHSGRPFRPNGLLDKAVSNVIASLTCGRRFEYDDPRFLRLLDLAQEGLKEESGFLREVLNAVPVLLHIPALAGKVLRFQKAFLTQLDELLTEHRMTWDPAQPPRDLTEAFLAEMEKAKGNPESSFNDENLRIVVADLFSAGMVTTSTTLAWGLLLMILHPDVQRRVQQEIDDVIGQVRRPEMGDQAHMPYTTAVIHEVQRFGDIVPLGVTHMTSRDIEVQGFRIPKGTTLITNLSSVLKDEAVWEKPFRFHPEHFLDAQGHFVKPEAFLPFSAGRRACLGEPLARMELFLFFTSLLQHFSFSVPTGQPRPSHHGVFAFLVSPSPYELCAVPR
Cytochrome P450 2C9, sequence (P11712 whole entry): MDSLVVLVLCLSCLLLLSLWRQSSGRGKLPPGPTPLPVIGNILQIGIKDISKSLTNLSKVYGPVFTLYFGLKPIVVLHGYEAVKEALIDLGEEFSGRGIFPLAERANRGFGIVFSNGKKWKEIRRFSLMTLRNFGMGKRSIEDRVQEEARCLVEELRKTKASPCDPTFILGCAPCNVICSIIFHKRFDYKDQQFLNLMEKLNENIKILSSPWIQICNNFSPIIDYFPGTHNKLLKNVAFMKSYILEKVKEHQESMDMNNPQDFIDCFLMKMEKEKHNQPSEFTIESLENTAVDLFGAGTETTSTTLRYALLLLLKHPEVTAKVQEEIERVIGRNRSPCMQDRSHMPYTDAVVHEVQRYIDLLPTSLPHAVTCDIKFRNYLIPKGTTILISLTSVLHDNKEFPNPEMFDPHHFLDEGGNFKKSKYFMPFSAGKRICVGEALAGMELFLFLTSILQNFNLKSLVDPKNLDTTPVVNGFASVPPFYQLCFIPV
Cytochrome P450 3A4, sequence (P08684 whole entry): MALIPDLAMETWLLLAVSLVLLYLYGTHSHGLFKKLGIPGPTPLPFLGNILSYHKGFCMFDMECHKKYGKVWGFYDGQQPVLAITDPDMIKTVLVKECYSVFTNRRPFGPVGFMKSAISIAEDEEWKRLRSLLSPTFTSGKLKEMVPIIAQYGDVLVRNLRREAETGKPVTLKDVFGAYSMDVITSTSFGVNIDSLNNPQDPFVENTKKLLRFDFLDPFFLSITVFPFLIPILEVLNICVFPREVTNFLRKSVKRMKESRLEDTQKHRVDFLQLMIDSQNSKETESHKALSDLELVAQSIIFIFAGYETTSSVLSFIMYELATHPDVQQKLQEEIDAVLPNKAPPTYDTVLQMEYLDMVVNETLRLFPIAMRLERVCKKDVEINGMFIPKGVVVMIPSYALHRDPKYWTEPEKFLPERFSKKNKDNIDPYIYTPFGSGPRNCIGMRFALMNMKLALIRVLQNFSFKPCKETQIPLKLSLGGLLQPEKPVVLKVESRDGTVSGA

pKa [1]: 3.3
half-life [2]: 120 min
Papp B→A at 2 h [3]: 42 ×10⁻⁶ cm/s
fraction unbound at 6 h, 1 µM [4]: 0.13
solubility [5]: 34 µM (≈ 12.9 µg/mL)
hepatocyte CLint [6]: < 2.3 µL/min/1e6 cells
microsomal CLint [7]: 11 µL/min/mg
Cmax/dose [8]: 590 nM
Vdss [9]: 7.5 L/kg
IC50 [10]: 8.7 µM
hepatocyte CLint [11]: 3.6 µL/min/1e6 cells
IC50 (Cytochrome P450 2C9): > 20 µM
half-life [12]: 132 min
AUC/dose [13]: 2127 nM·h
solubility [14]: > 13 mM
bioavailability [15]: 109%
microsomal CLint [16]: 10 µL/min/mg
Papp A→B at 2 h, 10 µM [17]: 7.2 ×10⁻⁶ cm/s
bioavailability [18]: 68%
half-life [19]: 66 min
Cmax/dose [20]: 288 nM
AUC/dose [21]: 1032 nM·h
Cmax/dose [22]: 387 nM
Vdss [23]: 2.1 L/kg
logD [24]: 3.8
fraction unbound at 6 h, 1 µM [25]: 0.1
Vdss [26]: 2.4 L/kg
IC50 (Cytochrome P450 2D6): > 20 µM
Cp(f) [27]: 32 nM
fraction unbound at 6 h, 1 µM [28]: 0.15
microsomal CLint [29]: 21 µL/min/mg
GI50 (KARPAS-422; Homo sapiens, KARPAS-422, 336 h): 6.7 µM
GI90 (KARPAS-422): 32 µM
fraction unbound at 6 h, 1 µM [31]: 0.13
solubility [32]: 2.6 µM (≈ 0.984 µg/mL)
hepatocyte CLint [33]: 3.2 µL/min/1e6 cells
clearance [34]: 22 mL/min/kg
solubility [35]: 173 µM (≈ 65.5 µg/mL)
clearance [36]: 13 mL/min/kg
fraction unbound at 6 h, 1 µM [37]: 0.12
IC50 (Cytochrome P450 3A4): > 20 µM
AUC/dose [38]: 2392 nM·h
solubility [39]: 86 µM (≈ 32.5 µg/mL)
hepatocyte CLint [40]: < 2.3 µL/min/1e6 cells
microsomal CLint [41]: 9 µL/min/mg
bioavailability [42]: 132%
Compound: COc1cccc(F)c1CNc1ccc(-c2cnc(C)nc2C)c2nncn12
minimal effective dose [30]: 7 mg/kg
